The structures appear in SMILES notation.

From patent US10301280B2 (Plexxikon Inc., priority 2012, dated 2019) come the findings set out here.

Sequence of c-kit mutant D816V (P10721 other isoform, or with tags, fused parts or gaps D816V/del 694-753): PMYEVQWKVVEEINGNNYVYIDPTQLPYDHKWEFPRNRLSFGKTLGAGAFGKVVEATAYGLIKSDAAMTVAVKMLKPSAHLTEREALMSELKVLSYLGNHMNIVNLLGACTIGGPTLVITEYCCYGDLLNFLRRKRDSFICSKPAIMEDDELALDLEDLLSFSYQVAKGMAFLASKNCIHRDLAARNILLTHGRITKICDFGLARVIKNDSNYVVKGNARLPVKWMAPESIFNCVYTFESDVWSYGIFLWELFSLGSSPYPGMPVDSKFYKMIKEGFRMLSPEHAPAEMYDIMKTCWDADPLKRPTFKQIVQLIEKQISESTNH

In the assay the target is c-kit mutant D816V (Homo sapiens (Human), UniProt P10721, D816V/DEL694-753). Kind of assay: c-Kit mutant D816V biochemical assay (AlphaScreen). The settings on record: c-kit D816V biochemical inhibitory activity. The procedure, abridged:
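His-tagged c-Kit D816V kinase domain (551-934, Δ694-753, E. coli) phosphorylating 30 nM biotin-(E4Y)10 at 10 μM ATP in HEPES pH 7.2 with Mg/Mn, 5% DMSO, 30 min at room temperature. PY20-acceptor/streptavidin-donor AlphaScreen detection after EDTA stop. IC50 from 8-point 1:3 titration.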
For orientation: Alpha assays give light when donor and acceptor beads are brought close together.
The term IC50 denotes the concentration that gives 50% inhibition. Regarding `Cc1nn(C2CN(C(=O)OC(C)(C)C)C2)cc1-c1cc2cc(NC(=O)c3[nH]nc(C)c3C)cnc2[nH]1` [P-2285, tert-butyl 3-[4-[5-[(3,4-dimethyl-1H-pyrazole-5-carbonyl)amino]-1H-pyrrolo[2,3-b]pyridin-2-yl]-3-methyl-pyrazol-1-yl]azetidine-1-carboxylate], the IC50 is 0.0001 to 1 µM.

Molecule `Cc1nn(C2CNC2)cc1-c1cc2cc(NC(=O)c3[nH]nc(C)c3C)cnc2[nH]1` [P-2286, N-[2-[1-(azetidin-3-yl)-3-methyl-pyrazol-4-yl]-1H-pyrrolo[2,3-b]pyridin-5-yl]-3,4-dimethyl-1H-pyrazole-5-carboxamide] showed an IC50 of 0.0001 to 1 µM.

Molecule `O=C(Nc1cnc2[nH]c(-c3ccccc3)cc2c1)c1cccc2n[nH]cc12` [P-2289, N-(2-phenyl-1H-pyrrolo[2,3-b]pyridin-5-yl)-2H-indazole-4-carboxamide] yielded an IC50 of 1 to 10 µM.

With `COC(=O)c1cccc(C(=O)Nc2cnc3[nH]c(-c4ccccc4)cc3c2)c1` [P-2290, methyl 3-[(2-phenyl-1H-pyrrolo[2,3-b]pyridin-5-yl)carbamoyl]benzoate], the IC50 lay in the range of 10 to 200 µM.

Consider `O=C(O)c1cccc(C(=O)Nc2cnc3[nH]c(-c4ccccc4)cc3c2)c1` [P-2291, 3-[(2-phenyl-1H-pyrrolo[2,3-b]pyridin-5-yl)carbamoyl]benzoic acid], for which the IC50 lay in the range of 10 to 200 µM.

`Cc1n[nH]c(C(=O)Nc2cnc3[nH]c(-c4ccc(C(=O)O)c(F)c4)cc3c2)c1C` [P-2292, 4-[5-[(3,4-dimethyl-1H-pyrazole-5-carbonyl)amino]-1H-pyrrolo[2,3-b]pyridin-2-yl]-2-fluoro-benzoic acid] displayed a half-maximal inhibitory concentration (IC50) of 0.0001 to 1 µM.

The molecule `Cc1n[nH]c(C(=O)Nc2cnc3[nH]c(-c4cccc(CC(=O)O)c4)cc3c2)c1C` [P-2293, 2-[3-[5-[(3,4-dimethyl-1H-pyrazole-5-carbonyl)amino]-1H-pyrrolo[2,3-b]pyridin-2-yl]phenyl]acetic acid] yielded a concentration for half-maximal inhibition (IC50) of 0.0001 to 1 µM.

In turn, `Cc1n[nH]c(C(=O)Nc2cnc3[nH]c(-c4ccc(C5(C(=O)O)CC5)cc4)cc3c2)c1C` [P-2294, 1-[4-[5-[(3,4-dimethyl-1H-pyrazole-5-carbonyl)amino]-1H-pyrrolo[2,3-b]pyridin-2-yl]phenyl]cyclopropanecarboxylic acid] yielded a half-inhibitory concentration (IC50) of 0.0001 to 1 µM.

Molecule `Cc1n[nH]c(C(=O)Nc2cnc3[nH]c(-c4ccc(CC(=O)O)cc4)cc3c2)c1C` [P-2295, 2-[4-[5-[(3,4-dimethyl-1H-pyrazole-5-carbonyl)amino]-1H-pyrrolo[2,3-b]pyridin-2-yl]phenyl]acetic acid] came in with an IC50 of 0.0001 to 1 µM.

Take `Cc1cc(-c2cc3cc(NC(=O)c4[nH]nc(C)c4C)cnc3[nH]2)ccc1C(=O)O` [P-2296, 4-[5-[(3,4-dimethyl-1H-pyrazole-5-carbonyl)amino]-1H-pyrrolo[2,3-b]pyridin-2-yl]-2-methyl-benzoic acid]: the concentration for half-maximal inhibition (IC50) lay in the range of 0.0001 to 1 µM.

Take `Cc1n[nH]c(C(=O)Nc2cnc3[nH]c(-c4cccc(C(=O)O)c4C)cc3c2)c1C` [P-2297, 3-[5-[(3,4-dimethyl-1H-pyrazole-5-carbonyl)amino]-1H-pyrrolo[2,3-b]pyridin-2-yl]-2-methyl-benzoic acid]: the concentration for half-maximal inhibition (IC50) fell in the range of 0.0001 to 1 µM.
